Consider 35 molecules from US20240245673A1, “Papain-like protease (PLpro) inhibitors” (Pfizer Inc., priority 2022, published 2024).

One test has as its target SARS-CoV-2 Papain like protease (PLpro) (Severe acute respiratory syndrome coronavirus 2 (2019-nCoV) (SARS-CoV-2), UniProt P0DTD1). Kind of test: Papain Like Protease (PLpro) biochemical assay with profluorogenic substrate Z-RLRGG-AMC. The note with it: IC50 (μM), SARS-CoV-2 PLpro 6.25 nM, 25 μM Z-RLRGG-AMC substrate, 60 minute reaction.
Molecule `Cc1ccc(N2CC3CC(C2)N3C)cc1C(=O)NC1(c2cc(-c3cnn(C)c3)nc3ccccc23)CC1` [Example 290, 2-methyl-N-(1-(2-(1-methyl-1H-pyrazol-4-yl)quinolin-4-yl)cyclopropyl)-5-(6-methyl-3,6-diazabicyclo[3.1.1]heptan-3-yl)benzamide] yielded an IC50 of 0.001 µM.

Molecule `Cc1ccc(N2CCNCC2)cc1C(=O)NC1(c2cc(-c3cnn(C)c3)cc3ccccc23)CC1` [Example 230, 2-methyl-N-(1-(3-(1-methyl-1H-pyrazol-4-yl)naphthalen-1-yl)cyclopropyl)-5-(piperazin-1-yl)benzamide] showed an IC50 of 0.003 µM.

Staying with this test, now noted: SARS-CoV-2 PLpro 6.25 nM, 25 μM Z-RLRGG-AMC substrate, 60 minute reaction; read-out: IC50.
Regarding `CNC(=O)c1cc(-c2cc(C3(NC(=O)c4ccc(COCc5cscn5)cc4C)CC3)c3ccccc3n2)[nH]n1` [Example 347, N-methyl-5-(4-(1-(2-methyl-4-((thiazol-4-ylmethoxy)methyl)benzamido)cyclopropyl)quinolin-2-yl)-1H-pyrazole-3-carboxamide], the IC50 is less than 0.001 µM. The same measure, in the same setting: for `COC(=O)/C=C/C(=O)NNC(=O)CCc1ccccc1C(=O)NC1(c2cc(-c3cnn(C)c3)nc3ccccc23)CC1` [Example 225, methyl (E)-4-(2-(3-(2-((1-(2-(1-methyl-1H-pyrazol-4-yl)quinolin-4-yl)cyclopropyl)carbamoyl)phenyl)propanoyl)hydrazineyl)-4-oxobut-2-enoate] the value was 0.006 µM. Consider `Cc1ccc(NC(=O)[C@H]2CCCCN2)cc1C(=O)N[C@H](C)c1cc(-n2ccnn2)nc2ccccc12` (single isomer, unassigned) [Example 30, (R)—N-(3-(((R*)-1-(2-(1H-1,2,3-triazol-1-yl)quinolin-4-yl)ethyl)carbamoyl)-4-methylphenyl)piperidine-2-carboxamide], for which the IC50 worked out at 7.73 µM. With `Cc1ccc(N2CC3CNCC3C2)cc1C(=O)N[C@H](C)c1cc(-c2cnn(C)c2)nc2ccccc12` (some centres unmarked) [Example 261], the IC50 was determined as 0.021 µM. As to `Cc1ccc(N2CCC3(CCCCN3)C2=O)cc1C(=O)N[C@H](C)c1cc(-c2cnn(C)c2)nc2ccccc12` (some centres unmarked) [Example 240], the IC50 was determined as 0.026 µM. The same measure, in the same setting: in the case of `Cc1ccccc1C(=O)N[C@H](C)c1cc(OC2CCOC2)nc2ccccc12` (stereo partly drawn) [Example 46, 2-methyl-N-((1R)-1-(2-((tetrahydrofuran-3-yl)oxy)quinolin-4-yl)ethyl)benzamide] it was 3.62 µM; in that of `Cc1ccccc1C(=O)NC(C)c1cc(-c2ccsc2)nc2ccccc12` (centres unmarked) [Example 119, 2-methyl-N-{1-[2-(thiophen-3-yl)quinolin-4-yl]ethyl} benzamide], 0.244 µM; in that of `Cc1ccccc1C(=O)NC(C)c1cc(-c2cnn(CC3(C#N)CC3)c2)nc2ccccc12` (centres unmarked) [Example 123, N-[1-(2-{1-[(1-cyanocyclopropyl)methyl]-1H-pyrazol-4-yl}quinolin-4-yl)ethyl]-2-methylbenzamide], 0.329 µM. With `COC[C@H](OCc1cocn1)c1ccc(C(=O)NC2(c3cc(-c4cnn(C)c4)nc4ccccc34)CC2)c(C)c1` (single isomer, unassigned) [Example 338], the IC50 was 0.003 µM. The same measure, in the same setting: for `Cc1cc(C(=O)NC(C)c2ncc[nH]2)ccc1C(=O)N[C@H](C)c1cc(-c2cnn(C)c2)nc2ccccc12` (some centres unmarked) [Example 246] the value was 0.035 µM.

As for `Cc1cc(CC(=O)Nc2nccs2)ccc1C(=O)N[C@H](C)c1cc(-c2cnn(C)c2)nc2ccccc12` [Example 238, (R)-2-methyl-N-(1-(2-(1-methyl-1H-pyrazol-4-yl)quinolin-4-yl)ethyl)-4-(2-oxo-2-(thiazol-2-ylamino)ethyl)benzamide], the IC50 worked out at 0.016 µM.

`Cc1ccc(CN)cc1C(=O)N[C@H](C)c1cc(-c2cnn(C)c2)nc2ccccc12` [Example 11, (R)-5-(aminomethyl)-2-methyl-N-(1-(2-(1-methyl-1H-pyrazol-4-yl)quinolin-4-yl)ethyl)benzamide]: the IC50 was 0.027 µM. Regarding `COC(=O)c1ccc(-c2cc(C(C)NC(=O)c3ccccc3C)c3ccccc3n2)o1` (centres unmarked) [Example 133, methyl 5-{4-[1-(2-methylbenzamido)ethyl]quinolin-2-yl}furan-2-carboxylate], the IC50 amounted to 0.392 µM. With `Cc1ccccc1C(=O)NC(C)c1cc(NCc2cocn2)nc2ccccc12` (centres unmarked) [Example 138, 2-methyl-N-[1-(2-{[(1,3-oxazol-4-yl)methyl]amino}-quinolin-4-yl)ethyl]benzamide], the IC50 stood at 0.944 µM.

Consider `Cc1ccc(NC(=O)[C@H]2CCCCN2)cc1C(=O)N[C@H](C)c1cc(-c2cnn(C)c2)nc2ccccc12` [Example 14, (R)-N-(4-methyl-3-(((R)-1-(2-(1-methyl-1H-pyrazol-4-yl)quinolin-4-yl)ethyl)carbamoyl)phenyl)piperidine-2-carboxamide], for which the IC50 was 0.019 µM. In the case of `Cc1cc(C(=O)NC2(c3cscn3)CC2)ccc1C(=O)N[C@H](C)c1cc(-c2cnn(C)c2)nc2ccccc12` [Example 314, (R)-2-methyl-N1-(1-(2-(1-methyl-1H-pyrazol-4-yl)quinolin-4-yl)ethyl)-N4-(1-(thiazol-4-yl)cyclopropyl)terephthalamide], the IC50 came out at 0.002 µM. Consider `Cc1ccccc1C(=O)N[C@H](C)c1cc(-c2ccn[nH]2)nc2ccccc12` [Example 48, (R)—N-(1-(2-(1H-pyrazol-5-yl)quinolin-4-yl)ethyl)-2-methylbenzamide], for which the IC50 came to 0.28 µM. Same read-out and setting: in the case of `Cc1ccc(CN)cc1C(=O)N[C@H](C)c1cc(-n2cnnc2)nc2ccccc12` [Example 16, (R)—N-(1-(2-(4H-1,2,4-triazol-4-yl)quinolin-4-yl)ethyl)-5-(aminomethyl)-2-methylbenzamide] it was 0.149 µM; in that of `Cc1ccccc1C(=O)NC(C)c1cc(NC2(C#N)CC2)nc2ccccc12` (centres unmarked) [Example 145, N-(1-{2-[(1-cyanocyclopropyl)amino]quinolin-4-yl}ethyl)-2-methylbenzamide], 2.52 µM; in that of `COC[C@H](OCc1cscn1)c1ccc(C(=O)NC2(c3cc(-c4cc(C(=O)N(C)C)n[nH]4)nc4ccccc34)CC2)c(C)c1` (single isomer, unassigned) [Example 337], less than 0.001 µM. On the same count and under the same terms, for `Cc1ccccc1C(=O)NC(C)c1cc(-c2cn(C)nc2C(F)(F)F)nc2ccccc12` (centres unmarked) [Example 132, 2-methyl-N-(1-{2-[1-methyl-3-(trifluoromethyl)-1H-pyrazol-4-yl]quinolin-4-yl}ethyl) benzamide] the value was 0.844 µM; for `Cc1ccc(N2CCNCC2)cc1C(=O)NC1(c2cc(-c3ccc(C(=O)N(C)C)[nH]3)cc3ccccc23)CC1` [Example 276, N,N-dimethyl-5-(4-(1-(2-methyl-5-(piperazin-1-yl)benzamido)cyclopropyl)naphthalen-2-yl)-1H-pyrrole-2-carboxamide], 0.003 µM; for `Cc1ccc(NC(=O)[C@H]2CCCCN2)cc1C(=O)NC(C)c1cc(-c2cn[nH]c2)cc2ccccc12` (single isomer, unassigned) [Example 53, (R)—N-(3-(((R*)-1-(3-(1H-pyrazol-4-yl)naphthalen-1-yl)ethyl)carbamoyl)-4-methylphenyl)piperidine-2-carboxamide], 0.478 µM. Regarding `Cc1ccc(CN)cc1C(=O)NC(C)c1cc(-c2cc(C(=O)N(C)C)c[nH]2)cc2ccccc12` (centres unmarked) [Example 72, 5-(4-(1-(5-(aminomethyl)-2-methylbenzamido)ethyl)naphthalen-2-yl)-N,N-dimethyl-1H-pyrrole-3-carboxamide], the IC50 was 0.013 µM. For the molecule `Cc1ccc(N(C)C(=O)[C@H]2CCCCN2)cc1C(=O)N[C@H](C)c1cc(-c2cnn(C)c2)nc2ccccc12` [Example 15, (R)—N-methyl-N-(4-methyl-3-(((R)-1-(2-(1-methyl-1H-pyrazol-4-yl)quinolin-4-yl)ethyl)carbamoyl)phenyl)piperidine-2-carboxamide], the IC50 turned out to be 0.495 µM. The same measure, in the same setting: for `CNC(=O)/C=C/C(=O)NNC(=O)CCc1ccccc1C(=O)N[C@H](C)c1cc(-c2cnn(C)c2)nc2ccccc12` [Example 223, (R,E)-N-(1-(2-(1-methyl-1H-pyrazol-4-yl)quinolin-4-yl)ethyl)-2-(3-(2-(4-(methylamino)-4-oxobut-2-enoyl)hydrazineyl)-3-oxopropyl)benzamide] the value was 0.058 µM; for `Cc1ccccc1C(=O)NC(C)c1cc(-c2cncnc2)nc2ccccc12` (centres unmarked) [Example 130, 2-methyl-N-{1-[2-(pyrimidin-5-yl)quinolin-4-yl]ethyl} benzamide], 3.1 µM; for `CO/C=C/C(=O)NNC(=O)CCc1ccccc1C(=O)N[C@H](C)c1cc(-c2cnn(C)c2)nc2ccccc12` [Example 222, (R,E)-2-(3-(2-(3-methoxyacryloyl)hydrazineyl)-3-oxopropyl)-N-(1-(2-(1-methyl-1H-pyrazol-4-yl)quinolin-4-yl)ethyl)benzamide], 1.98 µM. Still for that read-out and setting: in the case of `Cc1ccc(N2CCN(C)CC2)cc1C(=O)NC(C)c1cc(-c2cc(C(=O)N(C)C)c[nH]2)cc2ccccc12` (centres unmarked) [Example 229, N,N-dimethyl-5-(4-(1-(2-methyl-5-(4-methylpiperazin-1-yl)benzamido)ethyl)naphthalen-2-yl)-1H-pyrrole-3-carboxamide] it was 0.006 µM.

For `Cc1cnc(N2CC3CCC2CN3)cc1C(=O)NC1(c2cc(-c3cnn(C)c3)nc3ccccc23)CC1` (centres unmarked) [Example 284, 2-(2,5-diazabicyclo[2.2.2]octan-2-yl)-5-methyl-N-(1-(2-(1-methyl-1H-pyrazol-4-yl)quinolin-4-yl)cyclopropyl)isonicotinamide], the IC50 turned out to be 0.006 µM. Regarding `COCC(OCc1cscn1)c1ccc(C(=O)N[C@H](C)c2cc(-c3cnn(C)c3)nc3ccccc23)c(C)c1` (mixture of isomers) [Example 331, 4-(2-methoxy-1-(thiazol-4-ylmethoxy)ethyl)-2-methyl-N-((R)-1-(2-(1-methyl-1H-pyrazol-4-yl)quinolin-4-yl)ethyl)benzamide], the IC50 is less than 0.001 µM. Turning to `Cc1nc(CNC(=O)c2ccc(C(=O)N[C@H](C)c3cc(-c4cnn(C)c4)nc4ccccc34)c(C)c2)cs1` [Example 204], the IC50 came to 0.073 µM.

`Cc1ccc(N2CCCC(N)C2=O)cc1C(=O)N[C@H](C)c1cc(-c2cnn(C)c2)nc2ccccc12` (some centres unmarked) [Example 235]: the 50% inhibitory concentration (IC50) was determined as 0.091 µM.
